# Test results reported in PMC12386351, “Monoterpene Indole Alkaloids with Antimicrobial Activity Against Helicobacter pylori” (International Journal of Molecular Sciences, 2025).
# “Also recorded” adds a separate entry of the source. Where two headings read alike, the source gives them in different places.
# Legend:
# [1] = test system: H. pylori reference strain J99; assay: MIC and MBC by microdilution against H. pylori reference strain J99; assay type: cell-based, Helicobacter pylori; details: for MBC: (-) = MBC not determined, as bacterial growth was observed at all tested concentrations (up to 20 µM)
# Description: To evaluate the activity of the natural products library, in vitro assays were conducted to determine the MIC and MBC against the H. pylori reference strain J99. […] The microplates were then incubated at 37 °C in microaerophilic conditions for 48 h with agitation of 140 rpm. After incubation, the optical density was read at 600 nm (BioTek Epoch2, Agilent, Winooski, VT, USA). All assays were performed in duplicate. DMSO at a concentration of 1% (v/v) was included as a negative control to assess the baseline effect of the solvent, in which bacterial growth was expected, while kanamycin (Sigma-Aldrich, St. Louis, MO, USA) at a concentration of 8 µg/mL was used as a positive control to provide a benchmark for effective antibacterial activity. MIC values were defined as the lowest concentration of a compound that inhibited the growth of H. pylori. MBC values were determined by plating 5 µL aliquots of each dilution onto H. pylori-selective medium, followed by incubation as described above. MBC was defined as the lowest concentration of a compound that rendered no visible colony formation on the solid medium, indicating bactericidal activity.
# [2] = MTT cytotoxicity assay on VERO cells; assay type: cell-based; details: African green monkey, MTT, 80 to 10 µM
# Description: (§1) The cytotoxicity of the compounds showing antibacterial activity was evaluated in VERO cell cultures (FTVE, Vircell, S.L., Granada, Spain) using the standard MTT colorimetric assay. Briefly, sub confluent cell cultures were exposed for 48 h, to 2-fold dilutions of each assayed compound, ranging from 80 to 10 µM, in 100 μL CO2-independent medium supplemented with 5% FBS and […] gentamicin (Gibco^TM, Grand Island, NY, USA) (CO2-ind-FBS5). In each assay, cells exposed to equivalent concentrations of DMSO as solvent and untreated cells were kept as controls; untreated cells were considered the baseline for 100% viability.
# (§2) After 48-h incubation at 37 °C, the culture medium was replaced by fresh CO2-ind-FBS5 medium supplemented with 0.5 mg/mL MTT (Thermo Fisher Scientific, Waltham, MA, USA). Upon a 3-h incubation at 37 °C, the medium was carefully discarded, and the purple formazan crystals formed were dissolved in DMSO (100 μL/well) during a 15-min incubation with agitation at room temperature, followed by absorbance reading at 570 nm, with reference wavelength at 630 nm (BioTek Epoch2, Agilent, Winooski, VT, USA). Data analysis and visualization were performed using Excel (v.2408) and RStudio (v. 2024.04.2). When possible, the half maximal cytotoxic concentration (CC50) values were determined for each compound by fitting a dose–response three- or four-parameter log-logistic function to the triplicate experimental points using RStudio (v.2024.04.2).
# (§3) The selectivity index (SI) is the ratio of the cytotoxic concentration for 50% of the cells (CC50) to the inhibitory concentration for 50% of the bacteria (IC50). Considering that IC50 values were not calculated, but are expectably lower than the MIC value, the SI was estimated by dividing the CC50 by the MIC. Therefore, this value is necessarily lower than the SI because the MIC, rather than the bacterial half-maximal inhibitory concentration (IC50), was used in the calculation. This approach allows for an estimation of the therapeutic potential of the compound by providing an indication of its selectivity for targeting bacterial cells over host cells, even though the MIC is used instead of the bacterial IC50.
# (§4) To compare biofilm formation between groups (negative control, H. pylori J99, and compound treatments), one-way analysis of variance (ANOVA) was performed, followed by Tukey’s post-hoc test for multiple comparisons. Data analysis was conducted using Python 3.13.5. Similarly, for the cytotoxicity assay in VERO cells, ANOVA and Tukey’s post-hoc test were also used to compare groups at each tested concentration (ranging from 80 to 10 µM), with DMSO-treated and untreated cells as reference groups.
# VERO cells = assay: MTT cytotoxicity assay on VERO cells; assay type: cell-based; details: 48 h, 10 to 80 µM, versus DMSO and untreated controls
# Description: as §1, §2, §3, §4
# [3] = Helicobacter pylori, H. pylori J99, 48 h, 2-fold dilutions 20 to 0.625 µM
# [4] = Helicobacter pylori, H. pylori J99, after conversion from µM to µg/mL
# [5] = Helicobacter pylori, H. pylori J99, read-out: MBC
Structure (SMILES),"MIC [1, 3]","MIC [1, 4]",CC50 at 48 h [2],Effect on cell viability (MTT) (VERO cells),MBC ([1]; H. pylori J99),"MBC [1, 5]"
"CCC1CN(C)C2Cc3c([nH]c4ccccc34)C(=NN=Cc3ccccc3O)CC1C2C(=O)OC (centres unmarked) [Compound 5, Dregamine(2′-hydroxybenzylidene)hydrazone]",20 µM,9.45 µg/mL,55.8 ± 4.5 µM,–,–,–
"CCC1CN(C)C2Cc3c([nH]c4ccccc34)C(=NN=Cc3c[nH]c4ccccc34)CC1C2C(=O)OC (centres unmarked) [Compound 4, Dregamine(indolylmethylene)hydrazone]",10 µM,4.96 µg/mL,47 ± 2.2 µM,–,–,–
"CCC1CN(C)C2Cc3c([nH]c4ccccc34)C(c3c(OC)ccc4c5c([nH]c34)C3(C(=O)OC)CC4CC(CC)C3N(CC5)C4CC(C)=O)CC1C2C(=O)OC (centres unmarked) [Compound 7, Tabernaelegantinine A]",20 µM,15.2 µg/mL,> 80 µM,only a slight decrease in cell viability; also recorded: significant effects only at 80 µM,–,–
"CCC1CN(C)C2Cc3c([nH]c4ccccc34)C(=NN=CC=Cc3ccccc3)CC1C2C(=O)OC (centres unmarked) [Compound 3, Dregamine(phenylallylidene)hydrazone]",20 µM,9.65 µg/mL,44.1 ± 2.4 µM,–,20 (20) µM,20 µM
"CCC1CN(C)C2Cc3c([nH]c4ccccc34)C(=NN=Cc3c[nH]c4cc(Br)ccc34)CC1C2C(=O)OC (centres unmarked) [Compound 6, Dregamine(6′bromo-3′indolylmethylene)hydrazone]",10 µM,5.75 µg/mL,> 80 µM,only a slight decrease in cell viability; also recorded: did not induce significant cytotoxicity at any tested concentration,–,20 µM
